Measured values from PMC5641094, “A peptide antagonist of Prep1-p160 interaction improves ceramide-induced insulin resistance in skeletal muscle cells” (Oncotarget, 2017).

Legend:
Type in all cases: cell-based, rat
[1] = system: Prep1 and p160 protein levels in L6 cells; test: Western blot of Prep1 and p160 protein levels in L6 cells; settings: for increase of Prep1 and p160 protein levels: 18h
Description: Figure 1 Effect of ceramides dose-response and time-course on Prep1 and p160 protein levels L6 skeletal muscle cells were treated with different concentration of C2cer (10μM and 100μM for 18h) (A) and for different time (10μM for 6h and 18h) (B). Protein lysates were analyzed by Western blot using antibodies for Prep1, p160 and for the beta-actin, as a loading control. Blots were detected by ECL and autoradiography. The autoradiographs are representative of four independent experiments. Asterisks denote statistically significant differences (*p<0.05; **p<0.01).
Figure 2 Effect of ceramides on Prep1 and p160 mRNA expression and of Prep1-p160 coprecipitation L6 cells were treated with C2cer (10μM) for 18h and Prep1 (A) or p160 (B) mRNA levels were analyzed by real-time RT-PCR analysis. Data were normalized by the amount of GAPDH mRNA, used as internal control. Bars represent the mean ± SD of three independent experiments, each performed in triplicate. (C) L6 cells were treated with cycloheximide (CHX) at 40μg/mL concentration for 18h and the lysates were analyzed by Western blot with anti-p160 and beta-actin. The autoradiograph shown is representative of three different experiments and subjected to densitometric analysis. (D) Protein lysates from L6 cells treated with C2cer as indicated, were immunoprecipitated with Prep1 antibody and immunoblotted with p160 or Prep1 antibodies. The autoradiograph shown is representative of three different experiments and subjected to densitometric analysis. Asterisks denote statistically significant differences (*p<0.05; **p<0.01).
Figure 3 Design and in vitro effects of Prep1(54-72) peptide on Prep1/p160 association (A) Binding curves of Prep1(59-72) and Prep1(54-72) peptides to p160_20-160 by ELISA-like assays. Biotinylated peptides at several concentrations were added in triplicate to a 96-well plate coated with p160_20-160 (0.1μM). Experiments were performed at least twice and the average results fitted using GraphPad Prism. […] (B) Competition binding experiments. His6-tagged-p160_20-160 at 0.25μM was incubated with Prep1(59-72) and Prep1(54-72) at concentrations ranging between 0.001÷10μM and added to a 96-well plate coated with Prep1_45-155 (0.10μM). Results are the average of three independent experiments. (C) L6 cells were incubated with increasing concentrations of the fluorescein-conjugated peptide (FITC-Prep1(54-72)) and peptide uptake was detected by FACS analysis of fluorescein-labeled cells. Bars represent the mean ± SD of four independent experiments. (D) L6 muscle cells incubated with Prep1(54-72) were stimulated with C2cer (10μM) for 18h. Protein lysates were immunoprecipitated with Prep1 antibodies and analyzed by Western blot using antibodies for p160 or for Prep1. (E) An aliquot of the lysate was used to measure protein expression of Prep1 and p160 and the beta-actin used as loading control. The blots were detected by ECL and autoradiography. The autoradiograph is representative of three independent experiments. Asterisks denote statistically significant differences (*p<0.05; **p<0.01).
L6 rat skeletal muscle cells (ATCC, Manassas, VA, USA) were cultured in DMEM supplemented with 10% FBS and 1% penicillin/streptomycin solution at 37°C in a humidified 95% air and 5% CO2 atmosphere (all vol./vol.). […]
Total cell lysates were obtained and separated by SDS-PAGE. […] The protein concentrations in the cell lysates were measured using a Bio-Rad DC (detergent compatible) assay. […]

[2] = system: IR tyrosine phosphorylation; test: IR tyrosine phosphorylation, immunoprecipitation and Western blot; settings: insulin 100nM; for effect on insulin-stimulated IR tyrosine phosphorylation: L6 cells, C2cer 10μM 18h, with or without Prep1(54-72)
Description: (§1) Figure 4 Prep1(54-72) peptide restores the insulin signaling inhibited by C2cer and Prep1 L6 cells were stimulated with insulin (100nM) and incubated with Prep1(54-72) in presence of C2cer at 10μM for 18h (A-B) or stable transfection of Prep1 (C-D). Protein lysates were immunoprecipitated with specific IR or IRS1 antibodies and analyzed by Western blot using antibodies for phosphotyrosines (pY) and beta-actin as loading control. Blots were detected by ECL and autoradiography. The autoradiographs are representative of three independent experiments. Asterisks denote statistically significant differences (*p<0.05; **p<0.01).
(§2) Total cell lysates were obtained and separated by SDS-PAGE. Briefly, cells were solubilized with lysis buffer containing 50mM HEPES, 150mM NaCl, 10mM EDTA, 10mM Na4P2O7, 2mM sodium orthovanadate, 50mM NaF, 1mM phenylmethylsulfonyl fluoride, 10μg/ml aprotinin, 10μg/ml leupeptin, pH 7.4, and 1% (v/v) Triton X-100. Lysates were clarified by centrifugation at 12,000g for 20 minutes at 4°C. The protein concentrations in the cell lysates were measured using a Bio-Rad DC (detergent compatible) assay. Immunoprecipitation and Western blot analysis have been performed as previously described.

[3] = system: IRS1 tyrosine phosphorylation; test: IRS1 tyrosine phosphorylation, immunoprecipitation and Western blot; settings: insulin 100nM; for effect on insulin-stimulated IRS1 tyrosine phosphorylation: L6 cells, C2cer 10μM 18h, with or without Prep1(54-72)
Description: as §1, §2

L6 cells = test: Glycogen content in L6 cells; settings: for effect on insulin-stimulated glycogen synthesis: insulin 100nM, C2cer 10μM, with or without Prep1(54-72)
Description: Figure 6 Effect of Prep1(54-72) peptide on glycogen content and 2-DG uptake L6 control and Prep1 overexpressing cells were stimulated with Insulin (100nM) and/or C2cer (10μM) and incubated with Prep1(54-72). (A) Glycogen content and (B) 2-DG uptake were measured as described in methods. Bars represent the mean ± SD of three independent experiments. Asterisks denote statistically significant differences (*p<0.05; **p<0.01; ***p<0.001).
Glycogen was isolated from L6 cells homogenized in 0.1% SDS, saturated with Na2SO4 for 30 minutes at 37°C, followed by ethanol (EtOH) precipitation. Glycogen content was determined as previously described. 2-DG uptake by the L6 cells was measured as previously reported.

[4] = C2cer 10μM 18h, incubated with Prep1(54-72)
[5] = Prep1L6 cells (stably transfected with Prep1 cDNA), incubated with Prep1(54-72)

Row | Compound | increase of Prep1 and p160 protein levels ([1]; C2cer 10μM) [%] | increase of Prep1 and p160 protein levels ([1]; C2cer 100μM) [%] | effect on insulin-stimulated IR tyrosine phosphorylation [2] | effect on insulin-stimulated IRS1 tyrosine phosphorylation [3] | reduction of insulin-stimulated glycogen content (L6 cells; C2cer exposure (abstract)) [fold] | effect on insulin-stimulated glycogen synthesis (L6 cells) | decrease of ceramide-induced p160 levels [1, 4] [%] | effect on ceramide-induced Prep1 levels [1, 4] | IR tyrosine phosphorylation in Prep1 overexpressing cells [2, 5] | IRS1 tyrosine phosphorylation in Prep1 overexpressing cells [3, 5]
1 | CCCCCCCCCCCCC/C=C/[C@@H](O)[C@H](CO)NC(C)=O [C2cer, D-erythro-Sphingosine, N-Acetyl-, reference compound] | 50 | 90 | blocked | blocked | 1.3 | negatively modulated |  |  |  | 
2 | Ac-KQAIYRHPLFPLLALLFEK-NH2 [Prep1(54-72)] |  |  | restored | restored |  | recovered the insulin response | 25 | did not modify | stimulated similarly to the control cells | stimulated similarly to the control cells
